Test results: patent EP4748847A1, “PEPTIDE COMPLEX HAVING VEGFR -2 AGONIST ACTIVITY” (Peptidream Inc, priority 2023, dated 2025)
*1 amine or outer side, *2 acyl side, *3 side chain or, on linkers, in order; H or OH if unused. Where a SMILES comes first, the peptide text is derived from it. Bridges are numbered along the chain shown (N, C = ends). Roman numbers before positions name the chains, in order. [ ]: non-standard residue; d: D form. The star is where a group is joined. CO(CH2)2(OCH2CH2)17CO = O=C(CCOCCOCCOCCOCCOCCOCCOCCOCCOCCOCCOCCOCCOCCOCCOCCOCCOCCC(=O)[*:2])[*:1]; X2 = O=C(OCCOCCOCCOCCOCCOCCOCCOCCOCCOCCOCCOCCOC(=O)[*:2])[*:1]; Phe(4-guanidino) = N=C(N)Nc1ccc(C[C@H](N)C(=O)O)cc1; hTyr = N[C@@H](CCc1ccc(O)cc1)C(=O)O; h4Pal = N[C@@H](CCc1ccncc1)C(=O)O; tBuAla = CC(C)(C)C[C@H](N)C(=O)O; Tle = CC(C)(C)[C@H](N)C(=O)O; Carboxymethyl = O=C(O)C*

Molecular target: T1, VEGFR-2 (Homo sapiens, UniProt P35968)
T1 construct: endogenous in cells; host or cells: HUVEC
Assay: pVEGFR AlphaLISA assay (VEGFR-2 phosphorylation, p-Tyr1175) in HUVECs
Format: cell-based
Settings: 10 minutes stimulation, % activity, maximum VEGF165a signal = 100%, unstimulated = 0%
Method: To evaluate the VEGFR-2 activation ability of the VEGFR-2 agonist peptides of the present invention, VEGFR-2 phosphorylation was verified. HUVECs were cultured using EGM™ -2 Endothelial Cell Growth Medium-2 BulletKit (LONZA; CC-3162). After detaching cells using Tryple (Thermo Fisher Scientific), they were seeded into a 96-well PDL-coated plate (Corning: 354461) at a density of 24,000 cells per well and cultured for 2 days. For starvation, the medium was replaced with EBM-2 medium (LONZA) containing 0.5% FBS (Thermo Fisher Scientific), 0.1% heparin (included with the above LONZA CC-3162), and 0.1% gentamicin (Nacalai), and the cells were cultured for 18 hours. Subsequently, Recombinant Human VEGF165a Protein (R&D Systems) or the peptide was added, and the cells were cultured in a CO2 incubator at 37°C. After 10 minutes of stimulation, cells were lysed using the Lysis Buffer included in the AlphaLISA SureFire Ultra VEGFR-2 (p-Tyr1175) Assay Kit (PerkinElmer) to lyse the cells. The procedure was performed according to the kit protocol, and signal detection was performed using a SpectraMax Paradigm multimode microplate reader (Molecular Devices). The obtained signals were analyzed using GraphPad Prism, and % activity was calculated with the maximum signal induced by VEGF165a set as 100% and the unstimulated control as 0%.
The VEGF165a concentration was evaluated at five points (0.08, 0.31, 1.25, 5, 20 nM) using 1/4-fold dilutions starting from 20 nM to determine the maximum value (100%). Peptide concentrations tested were: 3.2, 16, 80 nM for dimer structure number 1; 10, 100 nM for dimer structures numbers 2-41; and 1.25, 5, 20 nM for dimer structures numbers 42-57. […]
Peptides showing 50% or more activity at 10 nM were designated 2-A, those showing 50% or more activity at 100 nM were designated 2-B, and those showing 1% or more but less than 50% activity at 100 nM were designated 2-C.
Peptides showing 50% or more activity at 1.25 nM were designated 3-A, those showing 50% or more activity at 5 nM were designated 3-B, those showing 50% or more activity at 20 nM were designated 3-C, and those showing 1% or more but less than 50% activity at 20 nM were designated 3-D.

[1] = peptide 10, 100 nM (dimer structures 2-41)
[2] = peptide 1.25, 5, 20 nM (dimer structures 42-57)

T1 sequence (P35968 20-1356): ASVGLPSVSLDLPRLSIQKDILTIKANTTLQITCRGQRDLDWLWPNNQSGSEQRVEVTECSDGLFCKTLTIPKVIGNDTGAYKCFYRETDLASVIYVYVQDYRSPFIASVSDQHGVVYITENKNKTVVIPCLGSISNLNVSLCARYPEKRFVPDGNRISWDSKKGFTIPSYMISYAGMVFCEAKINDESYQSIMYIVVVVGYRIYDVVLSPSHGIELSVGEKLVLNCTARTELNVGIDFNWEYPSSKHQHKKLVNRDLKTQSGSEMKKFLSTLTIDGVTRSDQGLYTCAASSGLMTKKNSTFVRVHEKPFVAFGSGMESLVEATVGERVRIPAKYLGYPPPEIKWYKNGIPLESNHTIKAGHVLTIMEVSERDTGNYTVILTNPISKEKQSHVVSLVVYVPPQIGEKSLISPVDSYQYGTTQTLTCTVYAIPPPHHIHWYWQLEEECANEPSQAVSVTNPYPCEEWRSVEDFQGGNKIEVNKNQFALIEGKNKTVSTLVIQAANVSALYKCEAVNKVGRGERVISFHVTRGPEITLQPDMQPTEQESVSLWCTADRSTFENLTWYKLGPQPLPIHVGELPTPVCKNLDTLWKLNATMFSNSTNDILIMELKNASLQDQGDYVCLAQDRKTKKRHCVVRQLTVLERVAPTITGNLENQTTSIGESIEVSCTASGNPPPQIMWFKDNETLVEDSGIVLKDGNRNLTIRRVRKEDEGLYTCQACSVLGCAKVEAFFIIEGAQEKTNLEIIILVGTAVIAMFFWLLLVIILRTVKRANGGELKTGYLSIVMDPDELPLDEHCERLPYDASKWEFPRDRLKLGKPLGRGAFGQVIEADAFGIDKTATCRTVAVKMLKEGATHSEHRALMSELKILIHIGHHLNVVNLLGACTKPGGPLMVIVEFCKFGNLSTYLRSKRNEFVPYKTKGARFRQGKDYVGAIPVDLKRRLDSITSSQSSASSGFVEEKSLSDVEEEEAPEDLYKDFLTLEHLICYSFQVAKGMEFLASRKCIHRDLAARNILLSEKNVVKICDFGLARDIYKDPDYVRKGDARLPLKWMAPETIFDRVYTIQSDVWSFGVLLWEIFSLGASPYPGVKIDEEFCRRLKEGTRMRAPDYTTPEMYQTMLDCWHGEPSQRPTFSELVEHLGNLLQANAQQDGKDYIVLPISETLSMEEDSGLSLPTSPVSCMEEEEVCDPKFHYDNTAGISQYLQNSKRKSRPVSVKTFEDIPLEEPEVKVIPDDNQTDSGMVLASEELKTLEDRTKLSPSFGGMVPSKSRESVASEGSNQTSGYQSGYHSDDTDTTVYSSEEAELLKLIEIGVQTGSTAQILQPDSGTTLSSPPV

CC(C)C[C@@H]1NC(=O)[C@H](CC(=O)O)NC(=O)[C@H](CC(=O)O)NC(=O)[C@H](CCCCNC(=O)CCOCCOCCOCCOCCOCCOCCOCCOCCOCCOCCOCCOCCOCCOCCOCCOCCOCCC(=O)NCCCC[C@@H]2NC(=O)[C@H](C(C)C)NC(=O)[C@H](CC(=O)O)NC(=O)[C@H](C(C)(C)C)NC(=O)[C@H](Cc3c[nH]c4ccccc34)NC(=O)[C@H](Cc3ccc(OCC(=O)O)cc3)NC(=O)CSC[C@@H](C(=O)NCC(N)=O)NC(=O)[C@H](CC(=O)O)NC(=O)[C@H](CCc3ccc(O)cc3)NC(=O)[C@H](Cc3ccccc3)NC(=O)[C@H](Cc3ccc(O)cc3)NC(=O)[C@H](CC(C)C)NC(=O)[C@H](CC(=O)O)NC(=O)[C@H](CC(=O)O)NC2=O)NC(=O)[C@H](C(C)C)NC(=O)[C@H](CC(=O)O)NC(=O)[C@H](C(C)(C)C)NC(=O)[C@H](Cc2c[nH]c3ccccc23)NC(=O)[C@H](Cc2ccc(OCC(=O)O)cc2)NC(=O)CSC[C@@H](C(=O)NCC(N)=O)NC(=O)[C@H](CC(=O)O)NC(=O)[C@H](CCc2ccc(O)cc2)NC(=O)[C@H](Cc2ccccc2)NC(=O)[C@H](Cc2ccc(O)cc2)NC1=O [compound 24] (I: {CH2CO}-Y(Carboxymethyl)W[Tle]DVKDDLYF[hTyr]DCG-NH2 / II: {CH2CO}-Y(Carboxymethyl)W[Tle]DVKDDLYF[hTyr]DCG-NH2; linker I:6-II:6 via CO(CH2)2(OCH2CH2)17CO; thioether I:N-I:14, II:N-II:14)
pVEGFR2 Assay Results [1]: 2-B (50% or more activity at 100 nM)

CC(C)C[C@@H]1NC(=O)[C@H](CC(=O)O)NC(=O)[C@H](CC(=O)O)NC(=O)[C@H](CCCCNC(=O)CCOCCOCCOCCOCCOCCOCCOCCOCCOCCOCCOCCOCCOCCOCCOCCOCCOCCC(=O)NCCCC[C@@H]2NC(=O)[C@H](C(C)C)NC(=O)[C@H](CC(=O)O)NC(=O)[C@H](C(C)(C)C)NC(=O)[C@H](Cc3c[nH]c4ccccc34)NC(=O)[C@H](Cc3c[nH]c4ccccc34)NC(=O)CSC[C@@H](C(=O)NCC(N)=O)NC(=O)[C@H](CC(=O)O)NC(=O)[C@H](CCc3ccncc3)NC(=O)[C@H](Cc3ccccc3)NC(=O)[C@H](Cc3ccc(O)cc3)NC(=O)[C@H](CC(C)C)NC(=O)[C@H](CC(=O)O)NC(=O)[C@H](CC(=O)O)NC2=O)NC(=O)[C@H](C(C)C)NC(=O)[C@H](CC(=O)O)NC(=O)[C@H](C(C)(C)C)NC(=O)[C@H](Cc2c[nH]c3ccccc23)NC(=O)[C@H](Cc2c[nH]c3ccccc23)NC(=O)CSC[C@@H](C(=O)NCC(N)=O)NC(=O)[C@H](CC(=O)O)NC(=O)[C@H](CCc2ccncc2)NC(=O)[C@H](Cc2ccccc2)NC(=O)[C@H](Cc2ccc(O)cc2)NC1=O [compound 32] (I: {CH2CO}-WW[Tle]DVKDDLYF[h4Pal]DCG-NH2 / II: {CH2CO}-WW[Tle]DVKDDLYF[h4Pal]DCG-NH2; linker I:6-II:6 via CO(CH2)2(OCH2CH2)17CO; thioether I:N-I:14, II:N-II:14)
pVEGFR2 Assay Results [1]: 2-A (50% or more activity at 10 nM)

CC(C)[C@@H]1NC(=O)[C@H](CC(=O)O)NC(=O)[C@H](CCc2ccc(O)cc2)NC(=O)[C@H](Cc2c[nH]c3ccccc23)NC(=O)[C@H](Cc2c[nH]c3ccccc23)NC(=O)CSC[C@@H](C(=O)NCC(N)=O)NC(=O)[C@H](CC(=O)O)NC(=O)[C@H](CCc2ccc(O)cc2)NC(=O)[C@H](Cc2ccc(NC(=N)N)cc2)NC(=O)[C@H](Cc2ccc(O)cc2)NC(=O)[C@H](CC(C)(C)C)NC(=O)[C@H](CC(=O)O)NC(=O)[C@H](CC(=O)O)NC(=O)[C@H](CCCCNC(=O)OCCOCCOCCOCCOCCOCCOCCOCCOCCOCCOCCOCCOC(=O)NCCCC[C@@H]2NC(=O)[C@H](C(C)C)NC(=O)[C@H](CC(=O)O)NC(=O)[C@H](CCc3ccc(O)cc3)NC(=O)[C@H](Cc3c[nH]c4ccccc34)NC(=O)[C@H](Cc3c[nH]c4ccccc34)NC(=O)CSC[C@@H](C(=O)NCC(N)=O)NC(=O)[C@H](CC(=O)O)NC(=O)[C@H](CCc3ccc(O)cc3)NC(=O)[C@H](Cc3ccc(NC(=N)N)cc3)NC(=O)[C@H](Cc3ccc(O)cc3)NC(=O)[C@H](CC(C)(C)C)NC(=O)[C@H](CC(=O)O)NC(=O)[C@H](CC(=O)O)NC2=O)NC1=O [compound 57] (I: {CH2CO}-WW[hTyr]DVKDD[tBuAla]Y[Phe(4-guanidino)][hTyr]DCG-NH2 / II: {CH2CO}-WW[hTyr]DVKDD[tBuAla]Y[Phe(4-guanidino)][hTyr]DCG-NH2; linker I:6-II:6 via X2; thioether I:N-I:14, II:N-II:14)
pVEGFR2 Assay Results [2]: 3-D (1% or more but less than 50% activity at 20 nM)

CC(C)C[C@@H]1NC(=O)[C@H](CC(=O)O)NC(=O)[C@H](CC(=O)O)NC(=O)[C@H](CCCCNC(=O)CCOCCOCCOCCOCCOCCOCCOCCOCCOCCOCCOCCOCCOCCOCCOCCOCCOCCC(=O)NCCCC[C@@H]2NC(=O)[C@H](C(C)C)NC(=O)[C@H](CC(=O)O)NC(=O)[C@H](C(C)(C)C)NC(=O)[C@H](Cc3c[nH]c4ccccc34)NC(=O)[C@H](Cc3c[nH]c4ccccc34)NC(=O)CSC[C@@H](C(=O)NCC(N)=O)NC(=O)[C@H](CC(=O)O)NC(=O)[C@H](C(C)C)NC(=O)[C@H](Cc3ccc(NC(=N)N)cc3)NC(=O)[C@H](Cc3ccc(O)cc3)NC(=O)[C@H](CC(C)C)NC(=O)[C@H](CC(=O)O)NC(=O)[C@H](CC(=O)O)NC2=O)NC(=O)[C@H](C(C)C)NC(=O)[C@H](CC(=O)O)NC(=O)[C@H](C(C)(C)C)NC(=O)[C@H](Cc2c[nH]c3ccccc23)NC(=O)[C@H](Cc2c[nH]c3ccccc23)NC(=O)CSC[C@@H](C(=O)NCC(N)=O)NC(=O)[C@H](CC(=O)O)NC(=O)[C@H](C(C)C)NC(=O)[C@H](Cc2ccc(NC(=N)N)cc2)NC(=O)[C@H](Cc2ccc(O)cc2)NC1=O [Dimer Structure No. 43] (I: {CH2CO}-WW[Tle]DVKDDLY[Phe(4-guanidino)]VDCG-NH2 / II: {CH2CO}-WW[Tle]DVKDDLY[Phe(4-guanidino)]VDCG-NH2; linker I:6-II:6 via CO(CH2)2(OCH2CH2)17CO; thioether I:N-I:14, II:N-II:14)
pVEGFR2 Assay Results [1]: 2-C (1% or more but less than 50% activity at 100 nM)

CC(C)C[C@@H]1NC(=O)[C@H](CC(=O)O)NC(=O)[C@H](CC(N)=O)NC(=O)[C@H](CCCCNC(=O)CCOCCOCCOCCOCCOCCOCCOCCOCCOCCOCCOCCOCCOCCOCCOCCOCCOCCC(=O)NCCCC[C@@H]2NC(=O)[C@H](C(C)C)NC(=O)[C@H](CC(=O)O)NC(=O)[C@H](C(C)(C)C)NC(=O)[C@H](Cc3c[nH]c4ccccc34)NC(=O)[C@H](Cc3c[nH]c4ccccc34)NC(=O)CSC[C@@H](C(=O)NCC(N)=O)NC(=O)[C@H](CC(=O)O)NC(=O)[C@H](CCc3ccc(O)cc3)NC(=O)[C@H](Cc3ccccc3)NC(=O)[C@H](Cc3ccc(O)cc3)NC(=O)[C@H](CC(C)C)NC(=O)[C@H](CC(=O)O)NC(=O)[C@H](CC(N)=O)NC2=O)NC(=O)[C@H](C(C)C)NC(=O)[C@H](CC(=O)O)NC(=O)[C@H](C(C)(C)C)NC(=O)[C@H](Cc2c[nH]c3ccccc23)NC(=O)[C@H](Cc2c[nH]c3ccccc23)NC(=O)CSC[C@@H](C(=O)NCC(N)=O)NC(=O)[C@H](CC(=O)O)NC(=O)[C@H](CCc2ccc(O)cc2)NC(=O)[C@H](Cc2ccccc2)NC(=O)[C@H](Cc2ccc(O)cc2)NC1=O [compound 47] (I: {CH2CO}-WW[Tle]DVKNDLYF[hTyr]DCG-NH2 / II: {CH2CO}-WW[Tle]DVKNDLYF[hTyr]DCG-NH2; linker I:6-II:6 via CO(CH2)2(OCH2CH2)17CO; thioether I:N-I:14, II:N-II:14)
pVEGFR2 Assay Results [2]: 3-C (50% or more activity at 20 nM)
